# Assay results as given in US20240246960A1 (adMare Therapeutics Society, priority 2021, published 2024).
# Like-named read-outs stand apart in the source and are kept apart here.
# Key:
# FaDu cell line = assay: Prodrug activation in hypoxic stirred tumour cell suspensions; type: in vitro ADME; conditions: 10 μM, 4 hours
# Protocol: Prodrug compounds were assayed to determine their stability and rate of activation in stirred cell suspensions under 0.2 vs 5% oxygen. Compounds were diluted 1:1000 from DMSO stocks to 10 μM final concentration in tumour cell suspensions (1% by cell volume) in MEM media containing 10% FBS, 10 mM glucose & 3.7 g/L sodium bicarbonate. Cell lines assayed included A253, A549, Detroit562, FaDu, HCT116, HEP G2, HT29, SCC25, SCC9, SiHa & TC32. Compounds and cells were then incubated for 4 hours under constant mixing at 37° C. under 5% CO2 and either 0.2 or 5% O2. Following the incubation period cellular activation of the compounds was assayed via MeOH extraction and HPLC quantification.
# [1] = system: pH2AX induction in HCT116 ATM−/− multicellular tumour spheroids; assay: Prodrug radiation sensitization in multicellular tumour spheroids (pH2AX induction following radiation); type: cell-based
# Protocol: Prodrug compounds were assayed to determine their potency in 3D multicellular spheroids in media maintained under 20% vs […]. Multicellular tumour spheroids were grown to approximately 0.5 mm in diameter and irradiated with 20 Gy in combination with inhibitor test compounds to determine their potency using HCT116 and FaDu cell lines. Experiments were carried out in 96 well plates containing 0.7 mls of MEM media containing 10% FBS and 10 mM glucose under […] at 37° C. Following dilution of compounds 1:1000 from DMSO stocks, compounds were serially diluted from 10 μM down to 3.5 nM and 5-10 spheroids added. 96 well plates were constantly stirred to avoid spheroids settling during the course of the experiment. Endpoints were pDNA-PK (ser 2056) or pH2AX (ser 139) status in spheroid cryosections taken 1 or 2 hours following radiation and fixed immediately in formalin. Using tumour cell lines deficient in ATM improved the assay signal to noise and gH2AX readout. Using this assay prodrug activity could be compared in the more oxygenated outer spheroid layers versus less oxygenated hypoxic central cell layers.
# DNA-PK = target: T1, DNA-PK (Homo sapiens, UniProt P78527); assay: DNA-PK Assay for Biochemical Enzymatic Inhibition (ADP Glo Kinase assay); conditions: Table 2
# T1 construct: purchased Invitrogen PR9107A
# Method in brief: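 Human DNA-PK (25 ng) preincubated 15 min with compounds (ten three-fold dilutions) in HEPES pH 7.5, MgCl2, KCl, calf thymus DNA buffer, then substrate 434.4 μM and ATP 64.4 μM (final) for 60 min at room temperature. ADP-Glo luminescence; percent inhibition fitted by four-parameter regression for IC50.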
# [2] = Microsomal stability assay, human liver microsomes; type: in vitro ADME; conditions: for Microsomal Stability (human) % rem. 60 min: Example 11; for microsomal CLint at 0.1 uM: both sexes, human, liver microsomes, pH 7.4, Example 11
# Protocol: Samples were then mixed and centrifuged. Supernatants were used for HPLC-MS/MS analysis. […] Peak areas corresponding to the test compound were recorded.
# [3] = target: T2, DNA-PK phosphorylation at Serine 2056 (Homo sapiens, UniProt P78527); assay: Cellular Assay for Inhibition of DNA-PK Phosphorylation at Serine 2056 (FaDu cells, neocarzinostatin, sandwich ELISA); type: cell-based; conditions: Table 2
# T2 construct: host or cells: FaDu
# Method in brief: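 Readout was pSer2056 and total DNA-PK, measured by sandwich ELISA on protein-normalized lysates. Prior to lysis, compound was applied to FaDu cells for 1 h (0.3% DMSO), followed by 2 h of 1 μg/mL neocarzinostatin. IC50 values were fitted from log concentration versus % inhibition normalized to DMSO and NCS controls.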
# [4] = Microsomal stability assay, mouse liver microsomes; conditions: Example 11; for microsomal CLint at 0.1 uM: male, CD-1, mouse, liver microsomes, pH 7.4, Microsomal Stability Mouse Clint
# [5] = Homo sapiens, HCT-116, 20 Gy, 5% O2, inner layers, read-out: Prodrug 5% O2 Inner layers EC50
# [6] = Homo sapiens, HCT-116, 20 Gy, 5% O2, outer layers, read-out: Prodrug 5% O2 Outer layers EC50
# [7] = Homo sapiens, HCT-116, 20 Gy, 20% O2, outer layers, read-out: Prodrug 20% O2 Outer layers EC50
# [8] = 20 Gy, 5% O2, inner layers, read-out: Prodrug 5% O2 Inner layers EC50
# [9] = 20 Gy, 5% O2, outer layers, read-out: Prodrug 5% O2 Outer layers EC50
# [10] = 20 Gy, 20% O2, outer layers, read-out: Prodrug 20% O2 Outer layers EC50
# [11] = value of the effector of the listed prodrug, 5% O2, inner layers, read-out: Effector 5% O2 Inner layers EC50
SMILES,"Fraction of prodrug converted to active form, Hypoxic 0.2% O2 (FaDu cell line)","Fraction of prodrug converted to active form, Oxic 5% O2 (FaDu cell line)","EC50 [1, 5]","EC50 [1, 6]","EC50 [1, 7]",IC50 (DNA-PK),Microsomal Stability (human) % rem. 60 min [2],microsomal CLint at 0.1 uM [2],IC50 [3],Microsomal Stability (mouse) % rem. 60 min [4],microsomal CLint at 0.1 uM [4],"EC50 [1, 8]","EC50 [1, 9]","EC50 [1, 10]","EC50 [1, 11]"
"Cn1c(CN(c2cnc3cc(N4CCOCC4)nc(OC4CCC(Nc5ncccn5)CC4)c3c2)S(C)(=O)=O)cnc1[N+](=O)[O-] (centres unmarked) [LFA008, N-[(3-Methyl-2-nitro-imidazol-4-yl)methyl]-N-[7-morpholino-5-[4-(pyrimidin-2-ylamino)cyclohexoxy]-1,6-naphthyridin-3-yl]methanesulfonamide]",B (B is 0.05 to 0.15),D (D is 0 to 0.02),0.01 to 0.5 µM,0.5 to 1 µM,1 to 10 µM,0.01 to 0.15 µM,,,,,,,,,
"CC(c1cnc([N+](=O)[O-])n1C)N(c1cnc2cc(N3CCOCC3)nc(OC3CCC(Nc4ncccn4)CC3)c2c1)S(C)(=O)=O (centres unmarked) [LFA010, N-[1-(3-Methyl-2-nitro-imidazol-4-yl)ethyl]-N-[7-morpholino-5-[4-(pyrimidin-2-ylamino)cyclohexoxy]-1,6-naphthyridin-3-yl]methanesulfonamide]",A (A is 0.15 to 1),C (C is 0.02 to 0.05),0.01 to 0.5 µM,0.01 to 0.5 µM,1 to 10 µM,0.01 to 0.15 µM,E (% remaining = 0-25%),< 116 µL/min/mg,1 to 10 µM,E (% remaining = 0-25%),> 116 µL/min/mg,,,,
"Cn1c(CN(c2cnc3cc(N4CCOCC4)nc(OC4CCC(n5ccnc5)CC4)c3c2)S(C)(=O)=O)cnc1[N+](=O)[O-] (centres unmarked) [LFA018, N-[5-(4-Imidazol-1-ylcyclohexoxy)-7-morpholino-1,6-naphthyridin-3-yl]-N-[(3-methyl-2-nitro-imidazol-4-yl)methyl]methanesulfonamide]",B (B is 0.05 to 0.15),D (D is 0 to 0.02),1 to 10 µM,1 to 10 µM,1 to 10 µM,0.01 to 0.15 µM,,,10 to 30 µM,,,,,,
"Cn1c(CN(c2cnc3cc(N4CCOCC4)nc(OC4CCC(Nc5ncc(C(F)(F)F)cn5)CC4)c3c2)S(C)(=O)=O)cnc1[N+](=O)[O-] (centres unmarked) [LFA023, N-[(3-Methyl-2-nitro-imidazol-4-yl)methyl]-N-[7-morpholino-5-[4-[[5-(trifluoromethyl)pyrimidin-2-yl]amino]cyclohexoxy]-1,6-naphthyridin-3-yl]methanesulfonamide]",B (B is 0.05 to 0.15),D (D is 0 to 0.02),0.5 to 1 µM,1 to 10 µM,1 to 10 µM,,F (% remaining = 25-50%),< 116 µL/min/mg,,,,,,,
"CC(c1cnc([N+](=O)[O-])n1C)N(c1cnc2cc(N3CCOCC3)nc(OC3CCC(Nc4ncc(C(F)(F)F)cn4)CC3)c2c1)S(C)(=O)=O (centres unmarked) [LFA024, N-[1-(3-Methyl-2-nitro-imidazol-4-yl)ethyl]-N-[7-morpholino-5-[4-[[5-(trifluoromethyl)pyrimidin-2-yl]amino]cyclohexoxy]-1,6-naphthyridin-3-yl]methanesulfonamide]",B (B is 0.05 to 0.15),D (D is 0 to 0.02),0.01 to 0.5 µM,1 to 10 µM,10 to 100 µM,,E (% remaining = 0-25%),< 116 µL/min/mg,,E (% remaining = 0-25%),> 116 µL/min/mg,,,,
"Cn1c(CN(c2cnc3cc(N4CCOCC4)nc(OC4CCC(Nc5ncc(C#N)cn5)CC4)c3c2)S(C)(=O)=O)cnc1[N+](=O)[O-] (centres unmarked) [LFA026, N-[5-[4-[(5-Cyanopyrimidin-2-yl)amino]cyclohexoxy]-7-morpholino-1,6-naphthyridin-3-yl]-N-[(3-methyl-2-nitro-imidazol-4-yl)methyl]methanesulfonamide]",B (B is 0.05 to 0.15),D (D is 0 to 0.02),0.01 to 0.5 µM,1 to 10 µM,1 to 10 µM,,E (% remaining = 0-25%),> 116 µL/min/mg,,,,,,,
"CC(c1cnc([N+](=O)[O-])n1C)N(c1cnc2cc(N3CCOCC3)nc(OC3CCC(Nc4ncc(C#N)cn4)CC3)c2c1)S(C)(=O)=O (centres unmarked) [LFA027, N-[5-[4-[(5-Cyanopyrimidin-2-yl)amino]cyclohexoxy]-7-morpholino-1,6-naphthyridin-3-yl]-N-[1-(3-methyl-2-nitro-imidazol-4-yl)ethyl]methanesulfonamide]",B (B is 0.05 to 0.15),C (C is 0.02 to 0.05),0.01 to 0.5 µM,0.5 to 1 µM,1 to 10 µM,,E (% remaining = 0-25%),> 116 µL/min/mg,,E (% remaining = 0-25%),> 116 µL/min/mg,,,,
Cn1c(Cn2cnc(-c3cnc4cc(N5CCOCC5)nc(OC5CCC(Nc6ncccn6)CC5)c4c3)n2)cnc1[N+](=O)[O-] (centres unmarked) [LFA138],D (D is 0 to 0.02),D (D is 0 to 0.02),,,,,,,,,,1 to 10 µM,1 to 10 µM,1 to 10 µM,0.01 to 0.5 µM
Cn1c(Cn2ncnc2-c2cnc3cc(N4CCOCC4)nc(O[C@H]4CC[C@@H](Nc5ncccn5)CC4)c3c2)cnc1[N+](=O)[O-] [LFA139],B (B is 0.05 to 0.15),D (D is 0 to 0.02),,,,,,,,,,0.5 to 1 µM,0.5 to 1 µM,1 to 10 µM,0.01 to 0.5 µM
